Here are results for six compounds from ChEMBL document CHEMBL1201862, “PubChem BioAssay data set” (2004).

The target of one assay is T1, Leucine aminopeptidase (Plasmodium falciparum 3D7, UniProt Q8IL11).
T1 sequence (Q8IL11 whole entry): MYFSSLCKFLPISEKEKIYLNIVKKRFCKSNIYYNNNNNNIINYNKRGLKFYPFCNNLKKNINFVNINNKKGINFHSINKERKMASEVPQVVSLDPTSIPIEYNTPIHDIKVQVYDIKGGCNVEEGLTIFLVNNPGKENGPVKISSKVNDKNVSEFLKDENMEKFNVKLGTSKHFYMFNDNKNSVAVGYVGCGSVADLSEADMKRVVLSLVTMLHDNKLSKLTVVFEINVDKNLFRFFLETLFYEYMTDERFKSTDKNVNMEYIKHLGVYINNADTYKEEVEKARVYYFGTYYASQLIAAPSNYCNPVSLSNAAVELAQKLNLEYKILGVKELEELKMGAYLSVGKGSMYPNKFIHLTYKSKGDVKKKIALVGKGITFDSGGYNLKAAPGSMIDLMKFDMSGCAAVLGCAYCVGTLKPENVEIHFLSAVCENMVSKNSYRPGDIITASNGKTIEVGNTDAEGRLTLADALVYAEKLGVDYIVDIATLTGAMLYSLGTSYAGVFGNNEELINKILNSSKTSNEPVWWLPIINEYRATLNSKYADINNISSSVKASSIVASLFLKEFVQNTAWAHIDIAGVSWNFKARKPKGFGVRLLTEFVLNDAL
The assay is described as follows: P. falciparum M17LAP inhibitors, primary screen, biochemical, fluorogenic H-Leu-NHMec substrate, 1536-well (AID 1619). Format: functional.

A further assay concerns Jurkat. The assay is described as follows: antigen receptor-induced NF-kB inhibitors, dose response, Jurkat, luciferase reporter, luminescence, B- and T-cell (AID 489004).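 Further: NF-kB luciferase reporter Jurkat cells stimulated with PMA plus ionomycin.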 Format: functional, cell-based. The conditions noted are these: Homo sapiens. Background: A reporter such as luciferase makes a cellular process visible.
For assay [1], the target named is Glyceraldehyde-3-phosphate dehydrogenase (Homo sapiens, UniProt P04406).
Chain of Glyceraldehyde-3-phosphate dehydrogenase (P04406 whole entry): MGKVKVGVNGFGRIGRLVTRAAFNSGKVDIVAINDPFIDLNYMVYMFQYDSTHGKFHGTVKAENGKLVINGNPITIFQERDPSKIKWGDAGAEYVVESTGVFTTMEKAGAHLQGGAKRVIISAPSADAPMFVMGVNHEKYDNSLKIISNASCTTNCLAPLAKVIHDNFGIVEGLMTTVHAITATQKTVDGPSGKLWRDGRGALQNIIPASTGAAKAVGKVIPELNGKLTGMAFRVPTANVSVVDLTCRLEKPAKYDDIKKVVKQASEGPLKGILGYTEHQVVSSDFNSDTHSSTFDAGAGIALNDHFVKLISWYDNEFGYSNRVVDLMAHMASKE
Assay [2] deals with T2, Heat shock factor protein 1 (Mus musculus, UniProt P38532).
T2 sequence (P38532 whole entry): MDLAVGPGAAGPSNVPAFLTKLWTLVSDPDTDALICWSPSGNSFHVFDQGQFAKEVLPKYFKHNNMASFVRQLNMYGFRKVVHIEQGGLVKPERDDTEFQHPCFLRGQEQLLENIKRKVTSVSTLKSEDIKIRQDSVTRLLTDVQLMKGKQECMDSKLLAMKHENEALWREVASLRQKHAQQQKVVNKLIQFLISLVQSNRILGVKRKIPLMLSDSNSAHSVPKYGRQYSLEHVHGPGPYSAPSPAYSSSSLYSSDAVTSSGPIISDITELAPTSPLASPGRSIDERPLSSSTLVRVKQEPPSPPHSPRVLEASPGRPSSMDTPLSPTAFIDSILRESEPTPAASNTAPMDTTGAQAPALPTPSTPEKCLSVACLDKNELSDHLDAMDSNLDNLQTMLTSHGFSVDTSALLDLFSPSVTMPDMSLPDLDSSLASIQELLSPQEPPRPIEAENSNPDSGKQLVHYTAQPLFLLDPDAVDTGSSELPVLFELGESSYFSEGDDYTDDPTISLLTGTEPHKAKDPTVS
The assay is described as follows: inhibition of MG132-induced HSE-luciferase signal, confirmation, cell-based, NIH3T3, luminescence, dose retest (AID 2382).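 Further: NIH3T3 fibroblasts with HSF1-driven luciferase reporter stressed by proteasome inhibitor MG132; luminescence from HSF1-driven luciferase expression after 8 hours of MG132 stress.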 The format is functional.

Assay [3] can be described thus: Luminescence Cell-Based Dose Response HTS to Identify Inhibitors of 5'UTR Stem-Loop Driven Prion Protein mRNA Translation in H4 Neuroglioblastoma Cells. [Related pubchem assays: 1827 (Project Summary), 1813 (Primary HTS)]. Format: functional.
Assay [4] can be described thus: inhibitors of SNCA 5'UTR-driven reporter translation, confirmation, H4 neuroglioma cells, luminescence (AID 1988). The format is functional, cell-based.
The nature of assay [5]: cytotoxicity in HEK-293T NF-kB-Luc cells, dose response, cytotoxicity control for B/T-cell NF-kB inhibitor project, cell-based, uHTS hits (AID 489019).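 Further: IC50 reflects cytotoxicity as loss of cell viability.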 Format: functional.
The next assay deals with HT-1080. The assay is described as follows: cytotoxicity in HT1080 fibrosarcoma cells, cell-based, fluorescence readout (AID 620). The format is functional. The conditions noted are these: Homo sapiens.
The target of assay [6] is Heat shock protein HSP 90-alpha (Homo sapiens, UniProt P07900). Briefly: Luminescence-based dose response biochemical high throughput screening assay for inhibitors of the Heat Shock Protein 90 (HSP90). [Related pubchem assays: 1831 (Summary AID.), 1846 (Confirmation screen.), 1789 (Primary screen.)].
Assay [7] in a line: inhibitors of firefly luciferase expression or activity, dose response, H4 neuroglioma cells, luminescence (AID 1990). Format: functional, cell-based.
Assay [8] in a line: Luminescence-based counterscreen assay for KLF5 inhibitors: dose response cell-based high throughput screening assay to identify cytotoxic compounds using the IEC-6 intestinal epithelial cell line. [Related pubchem assays: 1700 (Primary screen.), 1834 (Confirmation screen.), 1858 (Summary AID.), 1905 (Counterscreen.)]. Format: functional. For orientation: The purpose of a counterscreen is to sort out artefacts and off-target activity.

The target in assay [9] is T3, Microphthalmia-associated transcription factor (Homo sapiens, UniProt O75030).
T3 sequence (O75030 whole entry): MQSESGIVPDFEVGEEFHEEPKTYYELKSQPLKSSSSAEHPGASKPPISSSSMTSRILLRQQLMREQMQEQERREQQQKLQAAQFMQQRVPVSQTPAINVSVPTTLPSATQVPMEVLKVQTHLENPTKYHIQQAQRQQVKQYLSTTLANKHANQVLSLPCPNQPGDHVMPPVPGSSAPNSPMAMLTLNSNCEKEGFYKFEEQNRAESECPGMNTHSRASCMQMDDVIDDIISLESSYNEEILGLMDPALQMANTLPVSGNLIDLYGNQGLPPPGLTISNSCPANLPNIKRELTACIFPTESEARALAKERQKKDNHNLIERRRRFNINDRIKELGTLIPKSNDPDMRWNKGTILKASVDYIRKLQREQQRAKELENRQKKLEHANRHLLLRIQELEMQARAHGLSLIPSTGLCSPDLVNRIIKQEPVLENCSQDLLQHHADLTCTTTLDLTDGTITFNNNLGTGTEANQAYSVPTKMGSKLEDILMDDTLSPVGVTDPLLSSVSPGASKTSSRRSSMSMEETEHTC
Briefly: TRPM1 promoter luciferase signal decrease, dose response, MITF inhibitor project, cell-based, SK-MEL-5, cherry-picked, set 3 (AID 493073).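 Further: SK-MEL-5 melanoma cells with luciferase driven by the MITF target TRPM1 promoter.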 The format is functional.

Assay [10] concerns the target Luciferin 4-monooxygenase (Photinus pyralis, UniProt P08659). Briefly: Counter Screen for Luciferase-based Assay Positives. [Related pubchem assays: 620, 618, 411 ].
In assay [11] the target is T4, Neuropeptide Y receptor type 2 (Homo sapiens, UniProt P49146).
T4 sequence (P49146 whole entry): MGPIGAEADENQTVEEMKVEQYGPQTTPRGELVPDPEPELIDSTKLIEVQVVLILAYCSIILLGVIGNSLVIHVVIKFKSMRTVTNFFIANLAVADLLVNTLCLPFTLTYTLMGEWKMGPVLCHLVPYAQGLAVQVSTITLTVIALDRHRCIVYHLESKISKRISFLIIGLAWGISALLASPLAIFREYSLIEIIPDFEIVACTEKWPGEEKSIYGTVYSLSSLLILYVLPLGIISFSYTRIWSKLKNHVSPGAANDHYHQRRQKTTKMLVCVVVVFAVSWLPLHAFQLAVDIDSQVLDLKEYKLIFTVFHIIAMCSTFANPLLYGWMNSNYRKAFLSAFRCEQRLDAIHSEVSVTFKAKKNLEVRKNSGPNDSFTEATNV
The assay is described as follows: NPY-Y2 antagonist potency, selectivity check, dose response, counter-screen for NPY-Y1 antagonist project, cell-based (AID 1278). The format is functional.

In assay [12] the target is T5, Neuropeptide Y receptor type 1 (Homo sapiens, UniProt P25929).
T5 sequence (P25929 whole entry): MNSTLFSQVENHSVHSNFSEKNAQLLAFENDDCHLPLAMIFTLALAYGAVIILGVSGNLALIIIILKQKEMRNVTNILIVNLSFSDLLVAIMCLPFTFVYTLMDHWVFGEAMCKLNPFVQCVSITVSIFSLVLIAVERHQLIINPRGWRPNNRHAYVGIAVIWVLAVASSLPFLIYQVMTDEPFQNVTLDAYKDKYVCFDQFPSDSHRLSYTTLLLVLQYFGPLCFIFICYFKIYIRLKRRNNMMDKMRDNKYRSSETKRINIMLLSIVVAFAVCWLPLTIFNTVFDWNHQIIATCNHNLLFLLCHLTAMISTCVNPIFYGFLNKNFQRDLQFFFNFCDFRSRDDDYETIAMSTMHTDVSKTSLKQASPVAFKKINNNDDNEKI
The assay is described as follows: NPY-Y1 receptor antagonist potency, dose response, cell-based (AID 1277). Format: functional.

Assay [13] concerns the target 5-hydroxytryptamine receptor 1E (Homo sapiens, UniProt P28566). Briefly: Counterscreen assay for S1P3 antagonists: Dose response cell-based high throughput screening assay to identify antagonists of the 5-Hydroxytryptamine Receptor Subtype 1E (5HT1E). [Related pubchem assays: 1429, 485 ]. Format: functional.
For assay [14], the target named is Sphingosine 1-phosphate receptor 3 (Homo sapiens, UniProt Q99500). Briefly: Dose response cell-based high throughput screening assay for antagonists of the Sphingosine 1-Phosphate Receptor 3 (S1P3). [Related pubchem assays: 1429, 485 ]. The format is functional.
Chain of Sphingosine 1-phosphate receptor 3 (Q99500 whole entry): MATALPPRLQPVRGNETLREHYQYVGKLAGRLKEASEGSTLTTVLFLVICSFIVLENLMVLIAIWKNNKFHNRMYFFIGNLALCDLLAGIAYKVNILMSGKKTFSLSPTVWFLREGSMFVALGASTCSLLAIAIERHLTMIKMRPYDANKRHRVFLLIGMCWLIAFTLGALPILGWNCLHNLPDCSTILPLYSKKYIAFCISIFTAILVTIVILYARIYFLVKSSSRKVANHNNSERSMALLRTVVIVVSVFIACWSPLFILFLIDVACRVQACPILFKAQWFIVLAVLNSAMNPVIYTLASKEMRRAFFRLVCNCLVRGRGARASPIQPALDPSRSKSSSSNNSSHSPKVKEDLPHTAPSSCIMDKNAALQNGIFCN
The nature of assay [15]: cytotoxicity toward NIH3T3 fibroblasts, dose response, counter-screen, cell-based, ATP luminescence, mouse fibroblasts (AID 2010).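 Further: cells exposed to compound for about 90 hours before reading.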 Format: functional.
Assay [16] is described as follows: inhibitors of intracellular T. cruzi replication, confirmation, NIH3T3 host cells, beta-gal luminescence (AID 2044).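 Further: intracellular parasites grown in NIH/3T3 mouse fibroblasts as host cells; luminescent beta-galactosidase reporter signal from transgenic T. cruzi replicating inside host cells; inhibitors lower the luminescence signal.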 The format is functional, cell-based.
Assay [17] can be described thus: A High Throughput Confirmatory Assay used to Identify Novel Compounds that Inhibit Mycobacterium Tuberculosis in the absence of Glycerol. The format is functional.
Another assay deals with Estrogen receptor beta (Homo sapiens, UniProt Q92731).
Chain of Estrogen receptor beta (Q92731 whole entry): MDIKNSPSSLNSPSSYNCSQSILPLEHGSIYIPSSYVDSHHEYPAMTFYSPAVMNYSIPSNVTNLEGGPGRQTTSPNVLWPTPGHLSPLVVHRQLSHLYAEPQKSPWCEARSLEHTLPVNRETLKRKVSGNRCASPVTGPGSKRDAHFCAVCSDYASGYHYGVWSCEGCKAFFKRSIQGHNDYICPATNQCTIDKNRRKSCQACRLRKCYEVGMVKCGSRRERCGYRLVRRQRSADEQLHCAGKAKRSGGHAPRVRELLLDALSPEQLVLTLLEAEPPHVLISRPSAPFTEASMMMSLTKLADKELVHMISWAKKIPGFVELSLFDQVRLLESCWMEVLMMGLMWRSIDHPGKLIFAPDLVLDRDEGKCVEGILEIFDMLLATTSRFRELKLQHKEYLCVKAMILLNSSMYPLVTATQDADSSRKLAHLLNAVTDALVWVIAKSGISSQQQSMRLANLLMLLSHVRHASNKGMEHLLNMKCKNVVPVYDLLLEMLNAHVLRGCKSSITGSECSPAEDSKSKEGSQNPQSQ
The next assay deals with Estrogen receptor (Homo sapiens, UniProt P03372).
Chain of Estrogen receptor (P03372 whole entry): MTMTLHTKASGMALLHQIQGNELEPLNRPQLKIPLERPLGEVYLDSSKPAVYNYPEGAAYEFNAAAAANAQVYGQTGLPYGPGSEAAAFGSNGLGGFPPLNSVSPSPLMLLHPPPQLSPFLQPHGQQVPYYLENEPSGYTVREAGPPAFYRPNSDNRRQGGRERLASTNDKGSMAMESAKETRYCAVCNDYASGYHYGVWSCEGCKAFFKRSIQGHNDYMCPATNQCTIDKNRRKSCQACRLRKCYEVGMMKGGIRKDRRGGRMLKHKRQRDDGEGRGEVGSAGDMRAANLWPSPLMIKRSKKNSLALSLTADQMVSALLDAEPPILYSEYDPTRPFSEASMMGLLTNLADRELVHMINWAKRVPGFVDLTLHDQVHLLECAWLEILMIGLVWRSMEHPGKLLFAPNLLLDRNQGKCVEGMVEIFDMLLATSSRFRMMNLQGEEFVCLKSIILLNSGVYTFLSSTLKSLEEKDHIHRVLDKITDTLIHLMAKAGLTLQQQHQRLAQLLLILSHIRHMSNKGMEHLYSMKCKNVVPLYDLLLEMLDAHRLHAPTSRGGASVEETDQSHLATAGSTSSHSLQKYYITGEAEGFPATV
Assay [18] can be described thus: inhibitors of Bluetongue virus cytopathic effect, confirmation, arbovirus, BSR cells (AID 1250).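 Further: protection from viral cytopathic effect measured as cell viability by ATP luminescence.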 Format: functional.
For assay [19], the target named is Induced myeloid leukemia cell differentiation protein Mcl-1 (Homo sapiens, UniProt Q07820). The format is functional.
Chain of Induced myeloid leukemia cell differentiation protein Mcl-1 (Q07820 whole entry): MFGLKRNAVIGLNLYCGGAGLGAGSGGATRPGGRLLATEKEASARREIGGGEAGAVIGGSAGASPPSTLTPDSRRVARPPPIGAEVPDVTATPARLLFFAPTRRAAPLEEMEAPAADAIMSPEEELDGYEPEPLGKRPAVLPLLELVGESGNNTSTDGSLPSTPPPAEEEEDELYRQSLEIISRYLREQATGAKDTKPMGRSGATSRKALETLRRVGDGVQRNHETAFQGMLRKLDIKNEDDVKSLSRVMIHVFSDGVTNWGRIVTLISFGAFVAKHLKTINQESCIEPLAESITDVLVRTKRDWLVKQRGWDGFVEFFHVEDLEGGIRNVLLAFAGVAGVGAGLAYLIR

Molecules are shown by their SMILES. Activity calls are given as the source filed them.

As usually defined, the IC50 is the concentration that inhibits the measured activity by half. Usually EC50 stands for the concentration giving half of the maximal effect. By AC50 is commonly meant the midpoint of the concentration-response curve, whichever way the signal moves.

Chain of 5-hydroxytryptamine receptor 1E (P28566 whole entry): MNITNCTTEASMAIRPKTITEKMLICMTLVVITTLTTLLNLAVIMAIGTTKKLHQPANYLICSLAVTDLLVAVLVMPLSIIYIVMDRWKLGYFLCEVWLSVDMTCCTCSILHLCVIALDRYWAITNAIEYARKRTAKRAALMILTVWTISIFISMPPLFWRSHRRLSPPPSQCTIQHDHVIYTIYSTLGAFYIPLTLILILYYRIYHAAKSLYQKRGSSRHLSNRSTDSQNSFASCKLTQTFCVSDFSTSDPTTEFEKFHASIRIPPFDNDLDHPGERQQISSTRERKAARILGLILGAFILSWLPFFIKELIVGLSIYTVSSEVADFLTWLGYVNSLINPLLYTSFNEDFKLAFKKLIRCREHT
Chain of Luciferin 4-monooxygenase (P08659 whole entry): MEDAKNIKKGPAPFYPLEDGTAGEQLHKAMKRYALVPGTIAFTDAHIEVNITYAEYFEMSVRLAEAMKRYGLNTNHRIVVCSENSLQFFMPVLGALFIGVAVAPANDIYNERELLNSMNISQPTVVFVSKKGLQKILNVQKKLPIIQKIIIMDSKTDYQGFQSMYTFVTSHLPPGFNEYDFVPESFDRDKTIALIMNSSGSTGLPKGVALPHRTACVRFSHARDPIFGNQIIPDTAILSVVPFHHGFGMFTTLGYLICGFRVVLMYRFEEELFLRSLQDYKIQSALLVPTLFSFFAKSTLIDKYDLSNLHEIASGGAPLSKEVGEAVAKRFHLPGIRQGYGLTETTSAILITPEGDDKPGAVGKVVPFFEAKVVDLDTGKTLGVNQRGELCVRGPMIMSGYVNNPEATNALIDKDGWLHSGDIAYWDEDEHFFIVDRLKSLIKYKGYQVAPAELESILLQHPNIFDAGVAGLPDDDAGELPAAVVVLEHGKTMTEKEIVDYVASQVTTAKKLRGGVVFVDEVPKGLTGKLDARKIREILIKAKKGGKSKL

Turning to `O=C(O)CSCC(=O)Nc1ccc(C2CCCCC2)cc1`, the IC50 is 12.6 µM (active) on Leucine aminopeptidase; 0.26 µM (active) with Jurkat; > 100 µM (not active) in assay [1]; > 80 µM (inactive) in assay [5]; > 60 µM (not active) in assay [6]; > 39.8 µM (not active) in assay [8]. Also, the EC50 in assay [2] was 0.415 µM (active); in assay [3], 0.395 µM (active); in assay [4], 2.2 µM (active); with HT-1080 it was > 50 µM (not active); in assay [7], 0.101 µM (active); in [10], 3.61 µM (active). In [9], the AC50 was 2.12 µM (active).
Take `CC1=CC(C)(C)N(C(=O)CNC2CCCCC2)c2cc(C)ccc21`: the IC50 in assay [11] was 12.3 µM (not active); in [12] it was 6.84 µM (active).
Regarding `Cc1ccc(NC(=O)C(OC(=O)c2ccccc2Cl)c2ccccc2)cc1Cl` (centres undefined), the IC50 in [13] is 5.28 µM (active); in assay [14], 9.24 µM (active).
Turning to `CCCCNc1nc(N(C)c2ccccc2)nc(-n2ccnc2)n1`, the values for the EC50 in assay [15] and in assay [16] were > 30 µM (not active) and 0.55 µM (active), respectively. In assay [17], the IC50 is > 100 µM (active).
Consider `CCOC(=O)C1=C(O)/C(=C\c2ccc(CNC(=O)C(=O)Nc3ccc(C)c(C)c3)o2)N=C1C`, for which the IC50 against Estrogen receptor beta is reported as > 50 µM (not active); on Estrogen receptor, 40.5 µM (not active).
Regarding `CN1CCN(S(=O)(=O)c2ccc(NC(=S)NC(=O)c3ccc(Cl)cc3)cc2)CC1`, the IC50 in assay [18] was > 100 µM (active); in assay [19], 4.19 µM (active).
